In patent publication US12617797B2, “Substituted pyrazolo [1,5-a]pyrimidines having multimodal activity against pain” (ESTEVE PHARMACEUTICALS, S.A., priority 2020, dated 2026):

What was measured:
[1] = target: Human α2δ-1 subunit of Cav2.2 calcium channel (Homo sapiens, UniProt P54289); test: Human α2δ-1 subunit of Cav2.2 calcium channel assay ([3H]-gabapentin binding); details: binding to the α2δ-1 subunit of voltage-gated calcium channels expressed as Ki; + also covers inhibition between 1% and 50%
Procedure, shortened: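 Membranes enriched in human α2δ-1 incubated with 15 nM [3H]-gabapentin in 10 mM Hepes-KOH pH 7.4, 60 min at 27 °C; nonspecific binding defined with 10 μM pregabalin. Filtration and scintillation counting; % inhibition at 1 or 10 μM, or Ki from five concentrations.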

Human σ1 receptor = target: T1, Human σ1 receptor (Homo sapiens, UniProt Q99720); test: Human σ1 receptor radioligand assay ([3H](+)-pentazocine binding, transfected HEK-293 membranes); details: binding to σ1 receptor expressed as Ki; + also covers inhibition between 1% and 50%; read-out: σ-1 binding
T1 construct: expressed in transfected cells; host or cells: HEK-293
Procedure, shortened: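 Membranes (7 μg) were incubated with 5 nM [3H](+)-pentazocine in 50 mM Tris-HCl pH 8 for 120 min at 37° C. Non-specific binding was defined with 10 μM haloperidol. Values are % inhibition at 1 or 10 μM or Ki from five concentrations, read by filtration and scintillation counting.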

Chain of Human α2δ-1 subunit of Cav2.2 calcium channel (P54289 25-1103): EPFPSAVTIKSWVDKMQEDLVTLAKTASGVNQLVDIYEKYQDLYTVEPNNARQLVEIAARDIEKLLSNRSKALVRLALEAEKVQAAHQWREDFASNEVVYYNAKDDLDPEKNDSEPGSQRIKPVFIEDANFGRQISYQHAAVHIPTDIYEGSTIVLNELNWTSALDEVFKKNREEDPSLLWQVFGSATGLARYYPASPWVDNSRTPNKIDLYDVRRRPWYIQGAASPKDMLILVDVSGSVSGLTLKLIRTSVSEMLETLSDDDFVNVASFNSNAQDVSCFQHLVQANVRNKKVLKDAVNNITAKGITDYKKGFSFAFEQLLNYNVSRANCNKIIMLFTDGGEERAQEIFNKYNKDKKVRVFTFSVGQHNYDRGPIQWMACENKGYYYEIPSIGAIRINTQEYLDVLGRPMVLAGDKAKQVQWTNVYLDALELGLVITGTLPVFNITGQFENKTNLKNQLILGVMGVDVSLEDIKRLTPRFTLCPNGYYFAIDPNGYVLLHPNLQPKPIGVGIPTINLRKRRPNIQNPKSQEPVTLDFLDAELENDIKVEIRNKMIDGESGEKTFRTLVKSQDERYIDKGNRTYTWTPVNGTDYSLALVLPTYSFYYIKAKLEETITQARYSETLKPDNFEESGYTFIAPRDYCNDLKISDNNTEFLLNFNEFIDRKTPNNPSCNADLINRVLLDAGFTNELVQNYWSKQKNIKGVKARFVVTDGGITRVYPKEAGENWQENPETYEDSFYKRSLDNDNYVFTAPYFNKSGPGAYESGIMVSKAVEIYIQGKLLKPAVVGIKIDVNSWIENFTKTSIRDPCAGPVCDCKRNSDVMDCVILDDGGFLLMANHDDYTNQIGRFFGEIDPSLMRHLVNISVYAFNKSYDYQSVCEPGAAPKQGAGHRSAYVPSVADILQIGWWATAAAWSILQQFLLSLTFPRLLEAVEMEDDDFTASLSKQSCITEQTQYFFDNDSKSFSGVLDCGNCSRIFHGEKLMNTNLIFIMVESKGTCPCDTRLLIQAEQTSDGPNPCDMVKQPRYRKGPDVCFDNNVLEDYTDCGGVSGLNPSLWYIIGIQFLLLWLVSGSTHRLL
T1 sequence (Q99720 whole entry): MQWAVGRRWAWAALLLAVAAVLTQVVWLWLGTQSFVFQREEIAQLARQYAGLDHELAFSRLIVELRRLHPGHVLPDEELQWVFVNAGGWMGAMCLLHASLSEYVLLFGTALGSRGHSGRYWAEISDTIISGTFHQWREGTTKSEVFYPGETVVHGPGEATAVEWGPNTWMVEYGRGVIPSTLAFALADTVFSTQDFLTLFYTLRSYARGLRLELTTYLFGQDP

SMILES | Ki [1] | Ki (Human σ1 receptor)
CC(C)CCN1CCCC(c2ccnc3c(CNCC4CCOCC4)c(Cl)nn23)C1 (stereo not shown) [Example 191, 1-(2-Chloro-7-(1-isopentylpiperidin-3-yl)pyrazolo[1,5-a]pyrimidin-3-yl)-N-((tetrahydro-2H-pyran-4-yl)methyl)methanamine] | > 5000 nM | < 500 nM
CC(=O)N1CCC(CNCc2c(Cl)nn3c(C4CCCN(CCC(C)C)C4)ccnc23)CC1 (stereo not shown) [Example 192, 1-(4-((((2-chloro-7-(1-isopentylpiperidin-3-yl)pyrazolo[1,5-a]pyrimidin-3-yl)methyl)amino)methyl)piperidin-1-yl)ethan-1-one] | > 5000 nM | < 500 nM
Cc1nn2c([C@H]3CCCN(Cc4ccc(Cl)cc4)C3)ccnc2c1CN[C@H](C)c1ccccc1 [Example 196, (R)—N-((7-((S)-1-(4-chlorobenzyl)piperidin-3-yl)-2-methylpyrazolo[1,5-a]pyrimidin-3-yl)methyl)-1-phenylethan-1-amine] | > 5000 nM | < 500 nM
Cc1nn2c([C@@H]3CCCN(Cc4ccc(Cl)cc4)C3)ccnc2c1CNCC1CCOCC1 [Example 200, (R)-1-(7-(1-(4-chlorobenzyl)piperidin-3-yl)-2-methylpyrazolo[1,5-a]pyrimidin-3-yl)-N-((tetrahydro-2H-pyran-4-yl)methyl)methanamine] | > 5000 nM | < 500 nM
Cc1nn2c([C@@H]3CCCN(Cc4ccccc4)C3)ccnc2c1CNCC1CCOCC1 [Example 205, (R)-1-(7-(1-benzylpiperidin-3-yl)-2-methylpyrazolo[1,5-a]pyrimidin-3-yl)-N-((tetrahydro-2H-pyran-4-yl)methyl)methanamine] | > 5000 nM | < 500 nM
Cc1nn2c([C@@H]3CCCN(Cc4ccc(F)cc4)C3)ccnc2c1CNCC1CCOCC1 [Example 207, (R)-1-(7-(1-(4-fluorobenzyl)piperidin-3-yl)-2-methylpyrazolo[1,5-a]pyrimidin-3-yl)-N-((tetrahydro-2H-pyran-4-yl)methyl)methanamine] | > 5000 nM | < 500 nM
Cc1nn2c([C@H]3CCCN(Cc4cccc(C#N)c4)C3)ccnc2c1CNCC1CCOCC1 [Example 208, (S)-3-((3-(2-Methyl-3-((((tetrahydro-2H-pyran-4-yl)methyl)amino)methyl)pyrazolo[1,5-a]pyrimidin-7-yl)piperidin-1-yl)methyl)benzonitrile] | > 5000 nM | < 500 nM
Cc1nn2c([C@@H]3CCCN(Cc4cccc(C#N)c4)C3)ccnc2c1CNCC1CCOCC1 [Example 209, (R)-3-((3-(2-methyl-3-((((tetrahydro-2H-pyran-4-yl)methyl)amino)methyl)pyrazolo[1,5-a]pyrimidin-7-yl)piperidin-1-yl)methyl)benzonitrile] | > 5000 nM | < 500 nM
Cc1nn2c([C@@H]3CCCN(Cc4ccc(Cl)cc4)C3)ccnc2c1CN(C)C [Example 211, (R)-1-(7-(1-(4-chlorobenzyl)piperidin-3-yl)-2-methylpyrazolo[1,5-a]pyrimidin-3-yl)-N,N-dimethylmethanamine] | > 5000 nM | < 500 nM
CNCc1c(C)nn2c([C@@H]3CCCN(Cc4ccc(Cl)cc4)C3)ccnc12 [Example 212, (R)-1-(7-(1-(4-Chlorobenzyl)piperidin-3-yl)-2-methylpyrazolo[1,5-a]pyrimidin-3-yl)-N-methylmethanamine] | > 5000 nM | < 500 nM
Clc1nn2c([C@@H]3CCCN(Cc4ccccc4)C3)ccnc2c1CNCC1CCOCC1 [Example 215] | > 5000 nM | < 500 nM
Cc1nn2c(C3CCCN(Cc4ccc(Cl)cc4)C3)ccnc2c1CN (stereo not shown) [Example 219, (7-(1-(4-Chlorobenzyl)piperidin-3-yl)-2-methylpyrazolo[1,5-a]pyrimidin-3-yl)methanamine] | 500 to 5000 nM | 500 to 1000 nM

Other lines, results leading:

Ki [1] | Ki (Human σ1 receptor) | SMILES
< 500 nM | < 500 nM | Clc1ccc(CN2CCCC(c3ccnc4c(CNCC5CCOCC5)c(C5CC5)nn34)C2)cc1 (stereo not shown) [Example 188, 1-(7-(1-(4-Chlorobenzyl)piperidin-3-yl)-2-cyclopropylpyrazolo[1,5-a]pyrimidin-3-yl)-N-((tetrahydro-2H-pyran-4-yl)methyl)methanamine]
< 500 nM | < 500 nM | COc1nn2c(C3CCCN(Cc4ccc(Cl)cc4)C3)ccnc2c1CNCC1CCOCC1 (stereo not shown) [Example 189, 1-(7-(1-(4-Chlorobenzyl)piperidin-3-yl)-2-methoxypyrazolo[1,5-a]pyrimidin-3-yl)-N-((tetrahydro-2H-pyran-4-yl)methyl)methanamine]
< 500 nM | < 500 nM | Clc1ccc(CN2CCCC(c3ccnc4c(CNCC5CCOCC5)c(Cl)nn34)C2)cc1 (stereo not shown) [Example 190, 1-(2-Chloro-7-(1-(4-chlorobenzyl)piperidin-3-yl)pyrazolo[1,5-a]pyrimidin-3-yl)-N-((tetrahydro-2H-pyran-4-yl)methyl)methanamine]
< 500 nM | < 500 nM | CC(=O)N1CCC(CNCc2c(C)nn3c([C@H]4CCCN(Cc5ccc(Cl)cc5)C4)ccnc23)CC1 [Example 193, (S)-1-(4-((((7-(1-(4-Chlorobenzyl)piperidin-3-yl)-2-methylpyrazolo[1,5-a]pyrimidin-3-yl)methyl)amino)methyl)piperidin-1-yl)ethan-1-one]
500 to 5000 nM | < 500 nM | CC(=O)N1CCC(CNCc2c(C)nn3c([C@@H]4CCCN(Cc5ccc(Cl)cc5)C4)ccnc23)CC1 [Example 194, (R)-1-(4-((((7-(1-(4-chlorobenzyl)piperidin-3-yl)-2-methylpyrazolo[1,5-a]pyrimidin-3-yl)methyl)amino)methyl)piperidin-1-yl)ethan-1-one]
500 to 5000 nM | < 500 nM | Cc1nn2c([C@@H]3CCCN(Cc4ccc(Cl)cc4)C3)ccnc2c1CN[C@H](C)c1ccccc1 [Example 195, (R)—N-((7-((R)-1-(4-Chlorobenzyl)piperidin-3-yl)-2-methylpyrazolo[1,5-a]pyrimidin-3-yl)methyl)-1-phenylethan-1-amine]
500 to 5000 nM | < 500 nM | Cc1nn2c([C@@H]3CCCN(Cc4ccc(Cl)cc4)C3)ccnc2c1CN[C@@H](C)c1ccccc1 [Example 197, (S)—N-((7-((R)-1-(4-chlorobenzyl)piperidin-3-yl)-2-methylpyrazolo[1,5-a]pyrimidin-3-yl)methyl)-1-phenylethan-1-amine]
< 500 nM | < 500 nM | Cc1nn2c([C@H]3CCCN(Cc4ccc(Cl)cc4)C3)ccnc2c1CN[C@@H](C)c1ccccc1 [Example 198, (S)—N-((7-((S)-1-(4-chlorobenzyl)piperidin-3-yl)-2-methylpyrazolo[1,5-a]pyrimidin-3-yl)methyl)-1-phenylethan-1-amine]
< 500 nM | < 500 nM | Cc1nn2c([C@H]3CCCN(Cc4ccc(Cl)cc4)C3)ccnc2c1CNCC1CCOCC1 [Example 199, (S)-1-(7-(1-(4-Chlorobenzyl)piperidin-3-yl)-2-methylpyrazolo[1,5-a]pyrimidin-3-yl)-N-((tetrahydro-2H-pyran-4-yl)methyl)methanamine]
< 500 nM | < 500 nM | Cc1nn2c([C@@H]3CCCN(Cc4ccc(Cl)cc4)C3)ccnc2c1CNC[C@H]1CCOC1 [Example 202, 1-(7-((R)-1-(4-chlorobenzyl)piperidin-3-yl)-2-methylpyrazolo[1,5-a]pyrimidin-3-yl)-N—(((R)-tetrahydrofuran-3-yl)methyl)methanamine]
500 to 5000 nM | < 500 nM | Cc1nn2c([C@H]3CCCN(Cc4ccc(Cl)cc4)C3)ccnc2c1CNC[C@@H]1CCOC1 [Example 203, 1-(7-((S)-1-(4-chlorobenzyl)piperidin-3-yl)-2-methylpyrazolo[1,5-a]pyrimidin-3-yl)-N—(((S)-tetrahydrofuran-3-yl)methyl)methanamine]
500 to 5000 nM | < 500 nM | Cc1nn2c([C@H]3CCCN(Cc4ccccc4)C3)ccnc2c1CNCC1CCOCC1 [Example 204, (S)-1-(7-(1-Benzylpiperidin-3-yl)-2-methylpyrazolo[1,5-a]pyrimidin-3-yl)-N-((tetrahydro-2H-pyran-4-yl)methyl)methanamine]
< 500 nM | < 500 nM | Cc1nn2c([C@H]3CCCN(Cc4ccc(F)cc4)C3)ccnc2c1CNCC1CCOCC1 [Example 206, (S)-1-(7-(1-(4-Fluorobenzyl)piperidin-3-yl)-2-methylpyrazolo[1,5-a]pyrimidin-3-yl)-N-((tetrahydro-2H-pyran-4-yl)methyl)methanamine]
500 to 5000 nM | < 500 nM | CNCc1c(C)nn2c([C@H]3CCCN(Cc4ccc(Cl)cc4)C3)ccnc12 [Example 213, (S)-1-(7-(1-(4-chlorobenzyl)piperidin-3-yl)-2-methylpyrazolo[1,5-a]pyrimidin-3-yl)-N-methylmethanamine]
500 to 5000 nM | < 500 nM | Clc1nn2c([C@H]3CCCN(Cc4ccccc4)C3)ccnc2c1CNCC1CCOCC1 [Example 214]
< 500 nM | < 500 nM | CC(=O)N1CCC(CNCc2c(Cl)nn3c([C@H]4CCCN(Cc5ccccc5)C4)ccnc23)CC1 [Example 216, (S)-1-(4-((((7-(1-Benzylpiperidin-3-yl)-2-chloropyrazolo[1,5-a]pyrimidin-3-yl)methyl)amino)methyl)piperidin-1-yl)ethan-1-one]
500 to 5000 nM | 500 to 1000 nM | Cc1nn2c(C3CCCN(Cc4ccc(Cl)cc4)C3)ccnc2c1CNCC1CCN(C(N)=O)CC1 (stereo not shown) [Example 218, 4-((((7-(1-(4-Chlorobenzyl)piperidin-3-yl)-2-methylpyrazolo[1,5-a]pyrimidin-3-yl)methyl)amino)methyl)piperidine-1-carboxamide]
